Measurements from patent US20070142456A1, “Method for inhibiting cancer development by fatty acid synthase inhibitors” (FASgen, LLC, priority 2002, published 2007).

What was measured:
[1] = system: HER-2/neu breast cancer transgenic mice; test: Inhibition of cancer development in HER-2/neu breast cancer transgenic mouse model; assay type: in vivo
Source text: Derived from the FVB/N strain, neu-N transgenic mice express the non-transforming rat neu cDNA under the control of a mammary-specific promoter. As a consequence, the mice develop spontaneous mammary adenocarcinomas beginning at approximately 125 days, with nearly all of the mice harboring tumors by 300 days (Guy, C., Webster, M., Schaller, M., Parsons, T., Cardiff, R., and Muller, W., “Expression of the neu protooncogene in the mammary epithelium of transgenic mice induces metastatic disease,” Proc. Natl. Acad. Sci. USA, 89: 10578-10582, 1992). […] Although the activated neu model has the advantage of more rapid tumor development (Guy, C., Cardiff, R., and Muller, W., “Activated neu induces rapid tumor progression,” Journal of Biological Chemistry, 271: 7673-7678, 1996), this point mutation has not been identified in human breast cancer (Lofts, F. and Gullick, W., “C-erbB2 amplification and overexpression in human tumors,” Cancer Treat. Res., 61: 161-179, 1992). Thus, the HER-2/neu breast cancer transgenic mouse model more closely resembles human disease where neu is overexpressed, not mutated.
(See FIG. 4) Thirty HER-2/neu breast cancer transgenic mice were used for the study. Fifteen (15) mice received weekly doses of C75 (30 mg/kg in 0.1 ml RPMI) for three months beginning at 5 weeks of age and 15 mice received vehicle alone. Mice were observed daily and the first appearance of breast tumors were recorded. Two (2) mice in the controls and 6 in the treated group died during the study. […] Fifty-percent (50%) of the control mice developed tumors after approximately 200 days versus 300 days for the C75 treated animals. Moreover, three treated animals remained tumor free for nearly 18 months, the duration of their lives.

NT5 cancer cells = test: Inhibition of NT5 cancer cell growth in vitro (crystal violet, O.D. 490 nm); assay type: cell-based, mouse; conditions: 72 hours, FIG. 2
Experimental: (See FIG. 2). 1×10^4 cells were plated in 24-well plates. Following overnight attachment, cells were treated with C75 or cerulenin diluted in DMSO at 5 mg/ml, with control cells receiving vehicle alone. After 72 hours, cells were stained with crystal violet (0.2% in 10% methanol), solubilized in 1% SDS, and the O.D. measured at 490 nm. Two-tailed t-test: Control-C75 5 μg/ml, p=0.0003; Control-C75 10 μg/ml, p<0.0001; Control-Cerulenin 5 μg/ml, p<0.0001; Control-Cerulenin 10 μg/ml, p<0.0001.

[2] = system: NT5 cancer cell allografts; test: Growth of NT5 cancer cell allografts in FVB/N mice; assay type: in vivo; conditions: 30 mg/kg intraperitoneal every six days, FIG. 3
Experimental: (See FIG. 3). Fourteen animals received 0.1 ml packed cultured NT5 cells in the flank. When measurable tumors appeared, seven animals were treated with C75 (30 mg/kg in 0.1 ml RPMI, intraperitoneal injection) every six days and seven animals received vehicle control. Error bars in FIG. 3 represent standard error of the mean.

[3] = system: mammary glands of neu-N transgenic mice; test: Mechanism of action: mammary gland whole mounts and immunohistochemistry in neu-N transgenic mice; assay type: in vivo, mouse; conditions: 30 mg/kg ip weekly
Experimental: (§1) Fifteen 8-10 week old, neu-N transgenic mice were treated intraperitoneally (ip) with C75 at 30 mg/kg weekly, along with fifteen vehicle controls (RPMI). Three mice from the treatment and control groups were sacrificed by carbon dioxide asphyxiation at two-week intervals beginning at week two (two weeks after the first C75 treatment at 8-10 weeks of age). All animals were injected with 1 mg of BrdU two hours prior to sacrifice. Entire inguinal mammary glands were removed along with the intramammary lymph node that was grossly identifiable. Additionally, kidneys, liver and skin samples were collected from each animal. The […] from one side and the kidneys, liver and skin samples were fixed in neutral-buffered formalin, the other was fixed in Carnoy's fixative for whole-mount preparation. In addition, mammary glands from a non-transgenic age-matched FVB/N control mouse were removed for similar analysis at week 10 (age 18-20 weeks).
Following fixation in 10% neutral-buffered formalin for 24 hours, the mammary glands were embedded in paraffin. Six 4 micron slides were prepared from each tissue block, with the first slide stained with hematoxylin and eosin. The remaining unstained sections were utilized for immunohistochemical analysis of the preneoplastic lesions and surrounding breast tissue with the following antibodies: FAS, BrdU and p21/Waf-1 (Dako, Carpinteria, Calif.), Akt and Phospho-Akt (Cell Signaling Technology, Beverly, Mass.), and neu (Santa Cruz Biotechnology, Inc., Santa Cruz, Calif.) apoptosis (ApopTag Peroxidase In Situ Oligo Ligation Kit, Serologicals Corporation, Temecula, Calif.). Staining was assessed by counting the number of positive cells per 500 total cells in the ductal and lobular structures at 400×. Statistical analysis was performed using t-tests on Prism 3 software. The Carnoy's fixed tissue was stained with carmine red as described and whole-mounted on glass slides.

[4] = system: fatty acid synthesis in NT5 cancer cells; test: Inhibition of fatty acid synthesis: [14C]acetate incorporation into total lipids in NT5 cells; assay type: cell-based, mouse; conditions: 4 h treatment, [14C]acetate during last 2 h, FIG. 1
Experimental: (See FIG. 1). 5×10^4 NT5 cells were plated in 24-well plates. Following overnight attachment, cells were treated with cerulenin and C75 diluted in DMSO at 5 mg/ml for 4 h, with control cells receiving vehicle alone. During the last 2 h of drug treatment, cells were treated with 1 μCi [^14C]acetate. Total lipids were then extracted and counted. Statistical analysis (i.e., two tailed t-tests) of the results are as follows: Control-C75 5 μg/ml, p=0.116; Control-C75 10 μg/ml, p=0.018; Control-Cerulenin 5 μg/ml, p=0.002; Control-Cerulenin 10 μg/ml, p=0.002.
NT cell lines are established from tumors that developed in transgenic mice (Reilly, R., Gottlieb, M., Ercolini, A., Machiels, J., Kane, C., Okoye, F., Muller, W., Dixon, K., and Jaffee, E., “HER-2neu Is a Tumor Rejection Target in Tolerized HER-2/neu Transgenic Mice,” Cancer Research, 60: 3569-3576, 2000; Reilly, R., Machiels, J., Emens, L., Ercolini, A., Okoye, F., Lei, R., Weintraub, D., and Jaffee, E., “The Collaboration of Both Humoral and Cellular HER-2/neu-targeted Immune Responses Is Required for the Complete Eradication of HER-2/neu-expressing Tumors,” Cancer Research, 61: 880-883, 2001), and provide an in vitro model for testing the FAS inhibitors C75 and cerulenin.

[5] = system: mammary glands of FVB/N mice; test: Mammary gland development in non-transgenic FVB/N control mice treated with C75; assay type: in vivo; conditions: FVB/N animals, FIG. 9
Experimental: as §1

[6] = 30 mg/kg weekly for three months beginning at 5 weeks of age
[7] = immunohistochemistry, versus controls and FVB/N mice
[8] = mammary tissue, versus controls and FVB/N mice

Compound | time after which 50% of the mice developed tumors [1, 6] | tumor development (log-rank analysis) [1, 6] | time three treated animals remained tumor free (duration of their lives) ([1]; 30 mg/kg weekly for three months, three of 15 treated animals) | development of cancer ([1]; HER-2/neu transgenic mice, FIG. 4) | time three animals remained tumor free (duration of their lives) ([1]; as restated in the description) | mice that died during the study ([1]; treated group of 15 mice, 30 mg/kg weekly, 2 died in controls) | growth of NT5 cancer cells (O.D. 490 nm) (NT5 cancer cells) | growth of NT5 tumor cell allografts [2] | tissue restriction of the effects (other normal duct structures in skin, liver or kidney) [3] | number of mammary duct structures, their thickness and number of budding epithelial structures ([3]; following 8-10 weeks of treatment, versus vehicle controls and FVB/N animals) | Akt expression [3, 7] | FAS expression [3, 7] | Phospho-Akt expression [3, 7] | neu expression [3, 7] | p21/Waf1 expression [3, 7] | DNA synthesis (BrdU) [3, 8] | apoptotic changes [3, 8] | inhibition of fatty acid synthesis in NT5 cells [4] | morphological difference in mammary structures, C75 treated versus controls [5]
C=C1C(=O)OC(CCCCCCCC)C1C(=O)O (stereo not drawn) [C75, tetrahydro-3-methylene-2-oxo-5-n-octyl-4-furancarboxylic acid] | ~300 days | significantly delayed | ~18 months | significantly inhibited the development of cancer | ~1.5 years | 6 mice | significantly reduced the growth of the cancer cells | significantly reduced the growth | restricted to the breast epithelial cells that overexpress neu | significant reduction | decreased | decreased | decreased | decreased | decreased | decreased | increased | inhibit fatty acid synthesis in NT5 cells at levels similar to previous studies with human cell lines | no significant morphological difference
C/C=C/C/C=C/CCC(=O)[C@H]1O[C@H]1C(N)=O [cerulenin, 2,3-epoxy-4-oxo-7,10-dodecadienoylamide, reference compound] | – | – | – | – | – | – | significantly reduced the growth of the cancer cells | – | – | – | – | – | – | – | – | – | – | inhibit fatty acid synthesis in NT5 cells at levels similar to previous studies with human cell lines | –
